Here are results for four substances from patent US10435642B2, “Ionic liquids containing symmetric quaternary phosphonium cations and phosphorus-containing anions, and their use as lubricant additives” (UT-Battelle, LLC, priority 2014, dated 2019).

Data set [1] in a line: Density measurement of ionic liquids. Type of data set: physicochemical. The note with it: neat ionic liquid. As to the method:
(§1) Density and Viscosity Measurements
(§2) The density and viscosity of [P8888][DEHP] were measured and compared with those of [P66614][DEHP] and [P44414][DEHP].

Data set [2] can be described thus: Viscosity measurement of ionic liquids. Type of data set: physicochemical. On the procedure: as §1, §2
A short description of data set [3]: Corrosion test: droplet of ionic liquid on grey cast iron. To be noted: observation in the corrosion test. From the text:
A droplet of each IL was placed on the surface of a piece of grey cast iron.

Data set [4] is described as follows: Thermogravimetric analysis (TGA) thermal stability in air. Type of data set: physicochemical. From the text: ZDDP, when decomposed, left about a 20% solid residue (“ash”) because of its zinc content. In contrast, all decomposition products of the ionic liquids were gaseous, thus confirming their “ashless” nature.

With “trihexyltetradecylphosphonium bis(2-ethylhexyl)phosphate [[P66614][DEHP]]”, in data set [1], the “ρ (density)” value is on record as 0.91 g/cc. In data set [2], the “η (viscosity) 40° C.” value came out at 390 cP and the “η (viscosity) 100° C.” value came out at 45 cP.
“tetraoctylphosphonium bis(2-ethylhexyl)phosphate [[P8888][DEHP]]”: in data set [1], the “ρ (density)” value is 0.86 g/cc. In data set [2], the “η (viscosity) 40° C.” value is recorded as 608 cP and the “η (viscosity) 100° C.” value is recorded as 68 cP. Also, under “ExxonMobil PAO 4 cSt base oil”, the “Oil-solubility in ExxonMobil PAO 4 cSt base oil” value was >50 wt %.
Turning to “tributyltetradecylphosphonium bis(2-ethylhexyl)phosphate [[P44414][DEHP]]”, in data set [1], the “ρ (density)” value was found to be 0.88 g/cc. Also, in data set [2], the “η (viscosity) 40° C.” value is 252 cP and the “η (viscosity) 100° C.” value is reported as 25 cP. In addition, the “Hydrophobicity compared to the other ionic liquids” value in data set [3] is on record as “lower hydrophobicity”. In addition, for the setting “Chevron SAE 10 W base oil”, the “Oil-solubility in Chevron SAE 10 W base oil” value is <1 wt %. Also, for the setting “Shell GTL 4 cSt base oil”, the “Oil-solubility in Shell GTL 4 cSt base oil” value is recorded as <1 wt %.
As to zinc dialkyldithiophosphate [ZDDP], the “Solid residue (ash) after decomposition” value in data set [4] is ~20%.
